According to PubChem BioAssay AID1996:
Values after ≈ are worked out from the molar mass of the structure shown.

Settings: buffer; pH 7.4; 200.0 µM

Structure (SMILES) | solubility kinetic
O=C(NC(Cc1ccccc1)C(=O)O)c1cccnc1Cl (stereo not given) | 35 µg/mL (≈ 115 µM)
Cc1ccc(-c2nc3ccccc3c(=O)n2-c2cccc(C)n2)cc1 | > 49.1 µg/mL
O=c1c2ccccc2[nH]c(=S)n1Cc1ccc2c(c1)OCO2 | < 0.3 µg/mL
CN1CCN(CCC(=O)Nc2ccccc2)CC1 | > 37.1 µg/mL
O=C(NCCCNC(=O)c1cnccn1)c1ccc(Cl)c(Cl)c1 | 41.4 µg/mL (≈ 117 µM)
CCOC(=O)C1CCN(CC(=O)c2ccc(O)c(C)c2O)CC1 | 46.3 µg/mL (≈ 144 µM)
Cc1cc(C)c(S(=O)(=O)NCc2cccnc2)c(C)c1 | > 43.6 µg/mL
O=C(Cc1cccs1)NCCc1ccc(F)cc1 | > 39.5 µg/mL
CC(C)C(=O)Nc1ccc(-c2nc3ncccc3o2)cc1 | 22.2 µg/mL (≈ 78.9 µM)
CC(C)Nc1c([N+](=O)[O-])c(=O)oc2ccccc12 | 26.4 µg/mL (≈ 106 µM)
O=C(CCc1ccncc1)N1CCCC(Nc2ccc(F)c(F)c2)C1 (stereo not given) | 43.9 µg/mL (≈ 127 µM)
Cc1ccc(OCCNCc2ccccc2)c(C)c1.O=C(O)C(=O)O | 45.8 µg/mL
Clc1ccc(CN2CCN(c3ccccc3)CC2)cn1 | 21 µg/mL (≈ 73 µM)
COc1ccc(S(=O)(=O)Nc2cc(Sc3ncn[nH]3)c(O)cc2C)cc1 | > 58.9 µg/mL
C=CCNC(=S)N(Cc1ccccc1)Cc1ccccc1 | 7.2 µg/mL (≈ 24.3 µM)
CCCC(=O)Nc1cc(C)cn(Cc2c(F)cccc2Cl)c1=O | 41.3 µg/mL (≈ 123 µM)
Cc1nc(-c2cccs2)ccc1C(=O)O | > 32.9 µg/mL
Cc1ccc(C(=O)COC(=O)c2cc(=O)[nH]c3ccccc23)cc1 | 1.1 µg/mL (≈ 3.42 µM)
Cc1nc(N2CCOCC2)sc1C=O | > 31.8 µg/mL
N#Cc1c2c(c(NCCOCCO)n3c1nc1ccccc13)CCCC2 | 27 µg/mL (≈ 77 µM)

Structure (SMILES) | solubility kinetic
O=C(Nc1cccc(Cl)c1N1CCOCC1)c1cccnc1 | > 47.7 µg/mL
Cc1cccc(C)c1NC(=O)c1cccnc1 | 33.1 µg/mL (≈ 146 µM)
O=c1c2c([N+](=O)[O-])cc([N+](=O)[O-])cc2sn1Cc1ccccc1 | 17.2 µg/mL (≈ 51.9 µM)
CC1CCN(C2CC(=O)N(c3ccc(Br)cc3Br)C2=O)CC1 (stereo not given) | 40.4 µg/mL (≈ 93.9 µM)
Oc1ccc(Br)cc1CNc1cccc2cccnc12 | 1 µg/mL (≈ 3.04 µM)
CC(=O)c1ccccc1OCCOc1ncnc2sccc12 | > 47.2 µg/mL
COC(OC)c1ccc(C#N)c(SCc2ccc(C)cc2)n1 | 0.4 µg/mL (≈ 1.27 µM)
Cc1c2n(c3ccccc13)CCC2=O | 14.1 µg/mL (≈ 76.1 µM)
COc1ccc(NC(=O)c2cc([N+](=O)[O-])ccc2N2CCCCC2)cc1OC | 14 µg/mL (≈ 36.3 µM)
CC(NC1=NCCS1)c1ccccc1 (stereo not given) | 30.4 µg/mL (≈ 147 µM)
O=C(COC(=O)c1cnc(Cl)c(Cl)c1)c1ccc(F)cc1 | 9.4 µg/mL (≈ 28.6 µM)
CCOc1nc(-c2ccccc2)c2cc(C)ccc2n1 | 4.8 µg/mL (≈ 18.2 µM)
CC(=O)N1c2ccc(S(=O)(=O)N3CCCCC3)cc2CC1C (stereo not given) | > 48.4 µg/mL
COc1cccc(-c2cc(-c3cccnc3)nc(N)c2C#N)c1 | 2.3 µg/mL (≈ 7.61 µM)
O=C(COC(=O)c1c[nH]c2ccccc12)Nc1ccc(F)cc1 | 3.1 µg/mL (≈ 9.93 µM)
Cc1nc(NC(=O)CN2CC(C)OC(C)C2)sc1C(=O)N(C)C (stereo not given) | 44.2 µg/mL (≈ 130 µM)
Cn1c(=O)n(CC(=O)[O-])c(=O)c2c1nc1n2CCS1 | 40.8 µg/mL
CN1CCC(N(C)C(=O)CNC(=O)c2ccc(C(C)(C)C)cc2)CC1 | 39.5 µg/mL (≈ 114 µM)
O=S(=O)(NCc1ccc2c(c1)OCO2)c1ccc(F)c(F)c1 | 47.7 µg/mL (≈ 146 µM)
CCN(CC)CCC(C)OC(=O)c1ccc(O)cc1O.Cl (stereo not given) | > 47.7 µg/mL

Structure (SMILES) | solubility kinetic
Cc1cc(OC(=O)N(C)C)nc(-c2ccc(C)c(Cl)c2)n1 | 22.5 µg/mL (≈ 73.6 µM)
N#Cc1cc(S(=O)(=O)N2CCOCC2)ccc1N1CCOCC1 | > 50.6 µg/mL
O=[N+]([O-])c1ccc(O)c(C(C#Cc2ccccc2)N2CCOCC2)c1 (stereo not given) | 12.9 µg/mL (≈ 38.1 µM)
COc1cccc(CN(C)C(=O)c2cc(S(=O)(=O)NC3CCCCC3)ccc2C)c1 | 45.3 µg/mL (≈ 105 µM)
O=C(COC(=O)c1ccc(Br)cc1)NC1CCCC1 | 5.4 µg/mL (≈ 16.6 µM)
CCCN1CCC(NC(=O)Cc2ccccc2OC)CC1 | 43.5 µg/mL (≈ 150 µM)
Cc1cccc(Cn2c(=O)oc3ccc(C)cc32)c1 | 4.5 µg/mL (≈ 17.8 µM)
CCCOc1ccc(N2C(=O)CC(N(CCCO)C(=O)CC)C2=O)cc1 (stereo not given) | > 54.4 µg/mL
COc1ccc(Cn2cnc3c4cc(F)ccc4n(C)c3c2=O)cc1 | < 0.2 µg/mL
O=C(Nc1cccc2ncccc12)c1cc(Br)ccc1Cl | 5 µg/mL (≈ 13.8 µM)
Cc1cc(C)c(S(=O)(=O)Nc2ccccn2)c(C)c1 | 4.7 µg/mL (≈ 17 µM)
S=c1[nH]c2cc3c(cc2[nH]1)OCCO3 | 19.7 µg/mL (≈ 94.6 µM)
O=C(Nc1ccc(OCc2ccccc2)cc1)c1cccs1 | < 0.7 µg/mL
CC1CCCC(NC(=O)c2ccncc2)C1C (stereo not given) | > 34.8 µg/mL
CC12CCC(C(=O)NC3CCCCC3)([C@H](Br)C1=O)C2(C)C (stereo not given in full) | > 53.4 µg/mL
O=C(N/N=C/c1cccnc1)c1cccc(Cl)c1 | > 39 µg/mL
COc1ccccc1C(=O)Nc1sc2c(c1C(N)=O)CCCC2 | < 0.4 µg/mL
CSc1ncccc1C(=O)Nc1nc(C(C)(C)C)cs1 | 37.6 µg/mL (≈ 122 µM)
CC1(C)C/C(=N\O)C(C(O)c2cccc([N+](=O)[O-])c2)C(C)(C)N1 (stereo not given) | 40.4 µg/mL (≈ 126 µM)
C#Cc1cccc(NC(=O)C2CCN(C(C)=O)CC2)c1 | > 40.5 µg/mL
